Experimental data from patent publication US9452036B2, “Dental ultrasonic drug delivery system and dental ultrasonic drug delivery method” (priority 2009, dated 2016).

Experiments:
[1] = system: kanamycin-resistant enterococcus faecalis (lactococcus); assay: In vivo tubule sterilization test using ultrasound and nanobubbles (canine tooth root canal)
Experimental: After a canine tooth had been subjected to access cavity preparation and root canal enlargement (to #60) in vivo by common methods, a smear layer was removed with a Smear Clean (Nippon Shika Yakuhin Co., Ltd.). Then, the inside of the root canal was sufficiently dried with a cotton plug. Thereafter, 10 μl of a bacterial culture (a brain heart infusion (BHI) broth, Nissui Pharmaceuticals Co., Ltd., containing kanamycin) in which kanamycin-resistant enterococcus faecalis (lactococcus) subjected to gene transfer of pEGFP-C1 (clontech) was cultured was injected into each root canal. Subsequently, the root canal was temporarily sealed with zinc phosphate cement. Then, after 7 days, the root canal was irrigated with 3 ml of a saline solution. Thereafter, 20 μl of a drug solution containing 10% nanobubbles and 50 μg/ml of ampicillin was applied into the root canal. Then, with an ultrasound generator (SonoPore KTAC-4000), an ultrasonic device with a diameter of 1 mm of a detachable irradiation tube propagation type probe (i.e., an applicator type in which a Langevin transducer is provided inside a probe body) was inserted into the root canal, and ultrasound was delivered at a voltage of 30 V, a frequency of 1.186 MHz, a burst rate of 18.8 Hz, and a pulse-duty ratio of 50% for an application time of 120 seconds. […]

E. Coli = assay: In vitro tubule sterilization test using sodium hypochlorite and nanobubbles (extracted bovine teeth); format: cell-based; conditions: for OD600 value: paper point cultured 12 hours
Experimental: Using ten extracted bovine teeth (anterior teeth), the apical area of each of the teeth was filled with photopolymerization type ionomer cement. Then, the inside of the root cavity was treated with 6% sodium hypochlorite, irrigated, and sterilized with an autoclave. Thereafter, the inside of the root canal was sufficiently irrigated with a sterilized saline solution, dried with a paper point, filled with an E. Coli saturated solution, and then cultured in a humidity bath at 37° C. for a night. Then, the E. Coli solution in the root canal was sucked with a paper point, and the root canal was filled with an irrigation solution and 1% or 0.1% sodium hypochlorite. Thereafter, 5% nanobubbles were injected into the root canal, and ultrasound was applied thereto at a voltage of 30 V, a frequency of 1.186 MHz, a burst rate of 18.8 Hz, and a pulse-duty ratio of 50% for 120 seconds. Subsequently, the root canal was sufficiently irrigated with a saline solution, and the tooth was left for one minute with a paper point inserted into the root canal. Then, the paper point was cultured. After 12 hours, the amount of bacteria was measured with an absorbance OD600.

[2] = In-vitro test for drug permeation in root canal using ultrasound and nanobubbles (extracted canine tooth, fluorescence); format: in vitro ADME
From the text: After an extracted canine tooth had been subjected to access cavity preparation and root canal enlargement (to #60) by common methods, a smear layer was removed with a Smear Clean (Nippon Shika Yakuhin Co., Ltd.), and the tooth was refrigerated in a saline solution until being used in an experiment. Then, the inside of the root canal was sufficiently dried with a cotton plug. Thereafter, to prevent a drug solution from leaking from the root canal, an apical area was filled with a Unifast III (GC Corporation). Subsequently, nanobubbles were diluted with a saline solution such that the concentration of the nanobubbles is 5% or 10% (where the bubble concentration will be expressed in terms of vol % hereinafter), thereby preparing a drug solution containing 4.5 mg/ml tetracycline (SIGMA088K0680). The 5% nanobubbles herein mean that the concentration of the nanobubbles is 6×10^8/ml. The 10% nanobubbles herein mean that the concentration of the nanobubbles is 1.2×10^9/ml. Since even a small amount of deposited tetracycline produces fluorescence when irradiated with ultraviolet radiation, a deposition site can be easily detected with a fluorescence microscope. As a control, microbubbles (Optison (Molecular Biosystems Inc., San Diego)) were used, and a 5% or 10% drug solution was used. The 5% microbubbles herein mean that the concentration of the microbubbles is 6×10^8/ml. The 10% microbubbles herein mean that the concentration of the microbubbles is 1.2×10^9/ml. Then, 20 μl of the drug solution was applied into the root canal, and using an ultrasound generator (SonoPore KTAC-4000), an ultrasonic device with a diameter of 1 mm of a detachable irradiation tube propagation type probe (i.e., an applicator type in which a Langevin transducer is provided inside a probe body) was inserted into the root canal, and the device was operated. Operating conditions were that the voltage was 30 V (0.13-0.20 W indicated by a meter) or 31 V, the frequency was 1.186 MHz, the burst rate was 18.8 Hz, the pulse-duty ratio was 50%, and the application time was 120 seconds. After a lapse of the application time, the dilution solution was sufficiently removed with a cotton plug, and then a section with a thickness of 150 μm was prepared with a saw microtome (Leica SP1600), and a microscopic examination was performed with a stereomicroscope under ultraviolet irradiation. The degree of delivery of the drug into dentin tubules was observed based on fluorescence reaction.

CC1(C)S[C@@H]2[C@H](NC(=O)[C@H](N)c3ccccc3)C(=O)N2[C@H]1C(=O)O [ampicillin]
bacteria in the lateral wall of the root canal ([1]; 50 μg/ml ampicillin delivered using 10% nanobubbles and ultrasound 30 V, 120 seconds, fourth day (FIG. 25A)): no bacteria were observed | bacteria in the lateral wall of the root canal ([1]; only ampicillin, fourth day (FIG. 25B)): bacteria were not completely killed

OCl [sodium hypochlorite]
sterilization of the inside of the root canal (E. Coli; 0.1% sodium hypochlorite): sterilized only in the presence of 5% nanobubbles | bactericidal effect in the root canal (E. Coli; 1% sodium hypochlorite, irrespective of the presence of 5% nanobubbles): a bactericidal effect was obtained | OD600 value (E. Coli; sodium hypochlorite 1.0, 5% nanobubbles +, ultrasound 30 V 120 seconds): 0 | OD600 value (E. Coli; sodium hypochlorite 1.0, 5% nanobubbles −): 0

CN(C)[C@@H]1C(O)=C(C(N)=O)C(=O)[C@@]2(O)C(O)=C3C(=O)c4c(O)cccc4[C@@](C)(O)[C@H]3C[C@@H]12 [tetracycline]
degree of delivery of the drug to dentin tubules ([2]; 5% microbubbles, no ultrasound (FIG. 21E)): insufficient | degree of delivery of the drug to dentin tubules ([2]; 5% microbubbles, ultrasound 30 V (FIG. 21D)): insufficient | degree of delivery of the drug to dentin tubules ([2]; 5% nanobubbles, no ultrasound (FIG. 21C)): insufficient | degree of delivery of the drug to dentin tubules ([2]; 5% nanobubbles, ultrasound 30 V, 120 seconds, 4.5 mg/ml tetracycline (FIG. 21A)): high | degree of delivery of the drug to dentin tubules ([2]; 5% nanobubbles, ultrasound 31 V (FIG. 21B)): insufficient | degree of delivery of the drug to dentin tubules ([2]; 10% microbubbles, no ultrasound (FIG. 22E)): insufficient | degree of delivery of the drug to dentin tubules ([2]; 10% microbubbles, ultrasound 30 V (FIG. 22D)): insufficient | degree of delivery of the drug to dentin tubules ([2]; 10% nanobubbles, no ultrasound (FIG. 22C)): insufficient | degree of delivery of the drug to dentin tubules ([2]; 10% nanobubbles, ultrasound 30 V, 120 seconds, 4.5 mg/ml tetracycline (FIG. 22A)): high | degree of delivery of the drug to dentin tubules ([2]; 10% nanobubbles, ultrasound 31 V (FIG. 22B)): insufficient | drug permeation with nanobubbles compared with microbubbles ([2]; bubble concentrations of 5% and 10%): more significantly permeates | degree of delivery of the drug to dentin tubules, 10% nanobubbles compared with 5% nanobubbles ([2]; ultrasound 30 V (FIGS. 21A and 22A)): higher
